# Measured values reported in patent US6642273B2, “Unsaturated derivatives at the 4-position of 6-tert-butyl-1,1-dimethylindane and their use in human and veterinary medicine and in cosmetics” (Galderma Research & Development, priority 1997, dated 2003).
row,Compound,melting point [°C]
1,"C=C(c1ccsc1C(=O)O)c1cc(C(C)(C)C)cc2c1CCC2(C)C [Example 10, 3-[1-(6-tert-Butyl-1,1-dimethylindan-4-yl)ethen-1-yl]-thiophene-2-carboxylic Acid]",146 to 148
2,"C=C(c1cc(C(C)(C)C)cc2c1CCC2(C)C)c1sccc1C(=O)O [Example 12, 2-[1-(6-tert-Butyl-1,1-dimethylindan-4-yl)ethen-1-yl]-thiophene-3-carboxylic Acid]",148 to 150
3,"C=C(c1ccsc1C=O)c1cc(C(C)(C)C)cc2c1CCC2(C)C [Example 9, 3-[1-(6-tert-Butyl-1,1-dimethylindan-4-yl)ethen-1-yl]-thiophene-2-carboxaldehyde]",99 to 100
4,"C=C(c1cc(C(C)(C)C)cc2c1CCC2(C)C)c1sccc1C=O [Example 11, 2-[1-(6-tert-Butyl-1,1-dimethylindan-4-yl)ethen-1-yl]-thiophene-3-carboxaldehyde]",148 to 150
